From patent US12172990B2 (Constellation Pharmaceuticals, Inc., priority 2018, dated 2024)

Key:
[1] = target: full length human TREX1 (Homo sapiens (Human), UniProt Q9NSU2); experiment: TREX1 Biochemical Assay (fluorescence assay measuring degradation of dsDNA substrate); conditions: 150 pM TREX1, 60 nM dsDNA substrate, 25 minutes at room temperature
Summary of the method: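 His-Tev-tagged full-length human TREX1 expressed in E. coli, 150 pM final, with 60 nM TEX615/quencher-labelled 9-mer dsDNA in Tris pH 7.4, NaCl, DTT, BSA, Tween-20, MgCl2 and 1.0% DMSO; 25 min at room temperature, EDTA-quenched. Fluorescence 615 nm (excitation 570 nm); 10-point IC50 by four-parameter fit against pre-quenched and no-inhibitor controls.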

[2] = target: human TREX2 (residues M44-A279) (Homo sapiens (Human), UniProt Q9BQ50); experiment: TREX2 Biochemical Assay (fluorescence assay measuring degradation of dsDNA substrate); conditions: 2.5 nM TREX2, 60 nM dsDNA substrate, 25 minutes at room temperature
Summary of the method: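 Final conditions: 2.5 nM His-Tev-tagged TREX2 (E. coli-expressed), 60 nM fluorophore/quencher-labelled dsDNA, 50 mM Tris pH 7.4, 150 mM NaCl, 100 mM MgCl2, 1% DMSO; 10-point compound dose-response. Incubated 25 min at room temperature, then EDTA-quenched; fluorescence read at ex 570/em 615 nm. IC50 from four-parameter fit against pre-quenched and no-inhibitor controls.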

human TREX2 (residues M44-A279), sequence (Q9BQ50 whole entry, the tested form may be a part): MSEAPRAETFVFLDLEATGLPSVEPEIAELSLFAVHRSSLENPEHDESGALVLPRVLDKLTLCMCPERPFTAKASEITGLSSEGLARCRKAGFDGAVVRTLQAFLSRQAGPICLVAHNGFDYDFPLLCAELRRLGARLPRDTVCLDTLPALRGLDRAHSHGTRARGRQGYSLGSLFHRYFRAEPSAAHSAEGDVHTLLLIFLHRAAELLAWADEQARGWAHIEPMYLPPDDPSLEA
full length human TREX1, sequence (Q9NSU2 whole entry): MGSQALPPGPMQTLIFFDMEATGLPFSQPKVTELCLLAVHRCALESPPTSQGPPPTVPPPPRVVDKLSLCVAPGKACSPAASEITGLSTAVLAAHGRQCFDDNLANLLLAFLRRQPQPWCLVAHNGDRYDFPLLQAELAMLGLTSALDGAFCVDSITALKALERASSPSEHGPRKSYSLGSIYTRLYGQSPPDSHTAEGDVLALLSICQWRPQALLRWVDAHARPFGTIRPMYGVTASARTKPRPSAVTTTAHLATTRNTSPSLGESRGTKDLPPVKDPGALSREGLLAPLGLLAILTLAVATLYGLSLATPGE

| SMILES | IC50 [1] [µM] | IC50 [2] [µM] |
| --- | --- | --- |
| CC(=O)N1CCN(c2nc(C(=O)Nc3cnoc3)c(O)c(=O)n2C)CC1 [Example 116, 2-(4-acetylpiperazin-1-yl)-5-hydroxy-N-(isoxazol-4-yl)-1-methyl-6-oxo-1,6-dihydropyrimidine-4-carboxamide] | 0.1 to 1 | 10 to 100 |
| Cn1c(-c2ccccn2)nc(C(=O)Nc2cnoc2)c(O)c1=O [Example 27, 5-hydroxy-N-(isoxazol-4-yl)-1-methyl-6-oxo-2-(pyridin-2-yl)-1,6-dihydropyrimidine-4-carboxamide] | > 10 | > 100 |
| COc1ccc(C(=O)N2CCCC(c3nc(C(=O)Nc4cnoc4)c(O)c(=O)n3C)C2)cc1 (stereo not shown) [Example 47, 5-hydroxy-N-(isoxazol-4-yl)-2-(1-(4-methoxybenzoyl)piperidin-3-yl)-1-methyl-6-oxo-1,6-dihydropyrimidine-4-carboxamide] | 0.1 to 1 | 1 to 10 |
| Cn1c(C2CCCN(CC(F)(F)F)C2)nc(C(=O)Nc2cnoc2)c(O)c1=O (stereo not shown) [Example 98, 5-hydroxy-N-(isoxazol-4-yl)-1-methyl-6-oxo-2-(1-(2,2,2-trifluoroethyl)piperidin-3-yl)-1,6-dihydropyrimidine-4-carboxamide] | 0.1 to 1 | 10 to 100 |
| Cn1nnc(-c2nc(C(=O)Nc3cnoc3)c(O)c(=O)n2C)c1CCO [Example 74, 5-hydroxy-2-(5-(2-hydroxyethyl)-1-methyl-1H-1,2,3-triazol-4-yl)-N-(isoxazol-4-yl)-1-methyl-6-oxo-1,6-dihydropyrimidine-4-carboxamide] | 1 to 10 | 10 to 100 |
| Cc1cccc(-c2nc(C(=O)Nc3cnoc3)c(O)c(=O)n2C)c1 [Example 44, 5-hydroxy-N-(isoxazol-4-yl)-1-methyl-6-oxo-2-(m-tolyl)-1,6-dihydropyrimidine-4-carboxamide] | 0.1 to 1 | 10 to 100 |
| Cn1c(Cc2ccccn2)nc(C(=O)Nc2cnoc2)c(O)c1=O [Example 26, 5-hydroxy-N-(isoxazol-4-yl)-1-methyl-6-oxo-2-(pyridin-2-ylmethyl)-1,6-dihydropyrimidine-4-carboxamide] | 1 to 10 | 10 to 100 |
| Cn1c(C2CCCN(C(=O)c3cccnc3)C2)nc(C(=O)Nc2cnoc2)c(O)c1=O (stereo not shown) [Example 62, 5-hydroxy-N-(isoxazol-4-yl)-1-methyl-2-(1-nicotinoylpiperidin-3-yl)-6-oxo-1,6-dihydropyrimidine-4-carboxamide] | 0.1 to 1 | 1 to 10 |
| CNC(=O)c1cc(C)cc(-c2nc(C(=O)Nc3cnoc3)c(O)c(=O)n2C)c1 [Example 55, 5-hydroxy-N-(isoxazol-4-yl)-1-methyl-2-(3-methyl-5-(methylcarbamoyl)phenyl)-6-oxo-1,6-dihydropyrimidine-4-carboxamide] | < 0.1 | 1 to 10 |
| Cn1c(C2CCN2C(=O)OC(C)(C)C)nc(C(=O)Nc2cnoc2)c(O)c1=O (stereo not shown) [Example 22, tert-butyl 2-(5-hydroxy-4-(isoxazol-4-ylcarbamoyl)-1-methyl-6-oxo-1,6-dihydropyrimidin-2-yl)azetidine-1-carboxylate] | 1 to 10 | 10 to 100 |
| Cn1c(N2CCCC[C@@H]2CCO)nc(C(=O)Nc2cnoc2)c(O)c1=O [Example 107, (R)-5-hydroxy-2-(2-(2-hydroxyethyl)piperidin-1-yl)-N-(isoxazol-4-yl)-1-methyl-6-oxo-1,6-dihydropyrimidine-4-carboxamide] | < 0.1 | 1 to 10 |
| Cn1c(CC2CCCN(C(=O)OC(C)(C)C)C2)nc(C(=O)Nc2cnoc2)c(O)c1=O (stereo not shown) [Example 18, tert-butyl 3-((5-hydroxy-4-(isoxazol-4-ylcarbamoyl)-1-methyl-6-oxo-1,6-dihydropyrimidin-2-yl)methyl)piperidine-1-carboxylate] | 0.1 to 1 | 10 to 100 |

The remaining lines, values ahead:

| IC50 [1] [µM] | IC50 [2] [µM] | SMILES |
| --- | --- | --- |
| < 0.1 | 1 to 10 | C[C@H](Cc1ccccc1)c1nc(C(=O)Nc2cnoc2)c(O)c(=O)n1C [Example 79, (R)-5-hydroxy-N-(isoxazol-4-yl)-1-methyl-6-oxo-2-(1-phenylpropan-2-yl)-1,6-dihydropyrimidine-4-carboxamide] |
| < 0.1 | 10 to 100 | Cn1c(N2CC[C@@H](c3ccccc3)C2)nc(C(=O)Nc2cnoc2)c(O)c1=O [Example 109, (S)-5-hydroxy-N-(isoxazol-4-yl)-1-methyl-6-oxo-2-(3-phenylpyrrolidin-1-yl)-1,6-dihydropyrimidine-4-carboxamide] |
| < 0.1 | < 1 | Cn1c(-c2cccc(Br)c2OCCO)nc(C(=O)Nc2cnoc2)c(O)c1=O [Example 15, 2-(3-bromo-2-(2-hydroxyethoxy)phenyl)-5-hydroxy-N-(isoxazol-4-yl)-1-methyl-6-oxo-1,6-dihydropyrimidine-4-carboxamide] |
| < 0.1 | 1 to 10 | C[C@@H](Cc1ccccc1)c1nc(C(=O)Nc2cnoc2)c(O)c(=O)n1C [Example 80, (S)-5-hydroxy-N-(isoxazol-4-yl)-1-methyl-6-oxo-2-(1-phenylpropan-2-yl)-1,6-dihydropyrimidine-4-carboxamide] |
| 0.1 to 1 | 1 to 10 | Cn1c(C2CCCN(C(=O)c3cccnc3)C2)nc(C(=O)Nc2cnoc2)c(O)c1=O (stereo not shown) [Example 93, 5-hydroxy-N-(isoxazol-4-yl)-1-methyl-2-(1-nicotinoylpiperidin-3-yl)-6-oxo-1,6-dihydropyrimidine-4-carboxamide] |
| 1 to 10 | > 100 | Cn1c([C@H]2CCCCN2CCO)nc(C(=O)Nc2cnoc2)c(O)c1=O [Example 104, (R)-5-hydroxy-2-(1-(2-hydroxyethyl)piperidin-2-yl)-N-(isoxazol-4-yl)-1-methyl-6-oxo-1,6-dihydropyrimidine-4-carboxamide] |
| < 0.1 | 1 to 10 | Cc1c(Br)cccc1-c1nc(C(=O)Nc2cnoc2)c(O)c(=O)n1C [Example 5, 2-(3-bromo-2-methylphenyl)-5-hydroxy-N-(isoxazol-4-yl)-1-methyl-6-oxo-1,6-dihydropyrimidine-4-carboxamide] |
| 0.1 to 1 | 1 to 10 | Cc1cc(C)cc(-c2nc(C(=O)Nc3cnoc3)c(O)c(=O)n2C)c1 [Example 25, 2-(3,5-dimethylphenyl)-5-hydroxy-N-(isoxazol-4-yl)-1-methyl-6-oxo-1,6-dihydropyrimidine-4-carboxamide] |
| 0.1 to 1 | 10 to 100 | CC(C)C(=O)N1CCCC(c2nc(C(=O)Nc3cnoc3)c(O)c(=O)n2C)C1 (stereo not shown) [Example 96, 5-hydroxy-2-(1-isobutyrylpiperidin-3-yl)-N-(isoxazol-4-yl)-1-methyl-6-oxo-1,6-dihydropyrimidine-4-carboxamide] |
| 1 to 10 | 10 to 100 | Cn1c(-c2ccccc2-c2ccncc2)nc(C(=O)Nc2cnoc2)c(O)c1=O [Example 67, 5-hydroxy-N-(isoxazol-4-yl)-1-methyl-6-oxo-2-(2-(pyridin-4-yl)phenyl)-1,6-dihydropyrimidine-4-carboxamide] |
| 0.1 to 1 | 10 to 100 | Cn1c(N2CCC[C@@H]2c2cccnc2)nc(C(=O)Nc2cnoc2)c(O)c1=O [Example 102, (R)-5-hydroxy-N-(isoxazol-4-yl)-1-methyl-6-oxo-2-(2-(pyridin-3-yl)pyrrolidin-1-yl)-1,6-dihydropyrimidine-4-carboxamide] |
